Results reported in patent US20110076293A1, “TRIPTOLIDE DERIVATIVES FOR MODULATION OF APOPTOSIS AND IMMUNOSUPPRESSION” (priority 2002, published 2011).
Like-named read-outs stand apart in the source and are kept apart here.

What was measured:
[1] = tested on: Jurkat human T lymphocyte cell line; experiment: Apoptosis assay (Annexin V) of compounds incubated with human serum; conditions: for EC50: Homo sapiens, Jurkat
Method: (§1) Compounds of formula I, as shown in Table 1 above and in the Examples, were assayed for their capacity to induce apoptosis in cells from the Jurkat human T lymphocyte cell line, after incubation with pooled human serum for varying periods of time at 37° C. (see Example 19). An ester prodrug, triptolide-14-succinate, designated PG490-88, was included for comparison. The extent of conversion to triptolide after such incubation was also independently determined by HPLC analysis.
The ED50 values (column 3) are calculated directly from the data in each experiment, and the % conversion values (column 4) are calculated as percent of the ED50 value produced by triptolide, designated PG490, incubated in the same plasma (i.e. in the same experiment).
A. Incubation of compounds with human serum. Pooled human serum was stored in aliquots at −80° C. Test compounds were added at 20 mM to thawed human serum in 1.5 ml microfuge tubes and incubated at 37° C. in a water bath for varying periods of time. The test samples were placed on ice until dilution for the bioassay. Controls consisted of the compounds incubated in complete tissue culture medium (RPMI 1640 medium plus 5% heat-inactivated fetal calf serum, 1% HEPES, 1% pen/strep, 1% glutamine) rather than human serum.
B. Apoptosis assay of compounds incubated with human serum. Test samples were diluted to 1 mM in complete tissue culture medium. Aliquots were placed in microculture plates and serial dilutions were prepared so that the final concentration would encompass the range of 1 to 10,000 nM with half-log increments. Cells from an exponentially expanding culture of the Jurkat human T lymphocyte cell line (#TIB-152 obtained from American Type Culture Collection, Manassas, Va.) were harvested, washed once by centrifugation and dilution in complete tissue culture medium, and diluted to a concentration of 1×10^6 cells/ml. A volume of 100 μl of Jurkat cells (1×10^5 cells) was added to wells containing 100 μl of the diluted compounds, and the plates were incubated at 37° C. in a 5% CO2 incubator. After 24 hours, the plates were centrifuged to pellet the cells, and the cells were washed twice with 2% heat-inactivated fetal calf serum in PBS. To each well, 500 ul of binding buffer was added according to the Annexin V assay procedure (BioVision, Inc., Mountain View, Calif.). Next, 5 μl of the fluorescein isothiocyanate (FITC) conjugate of Annexin V (BioVision, Inc.) was added to each well, followed by 5 minutes of incubation in the dark. In some assays, propidium iodide (BioVision, Inc.) was added at this stage to check for necrotic cells. The contents of the wells were individually transferred into test tubes, and apoptosis was analyzed using a FACSCalibur flow cytometer (BD Immunocytometry Systems, San Jose, Calif.). Cells positive for Annexin V binding were considered to be apoptotic, and the data were calculated as percent apoptotic cells.
(§2) C. Comparison of bioactivities after incubation of compounds in human serum. The data were plotted as the concentration of compound incubated in serum versus percent apoptotic cells. The concentration of compound inducing 50% apoptosis (ED50) was calculated from these dose response curves. […] This percentage conversion was used to compare the bioactivity of various compounds after incubation in human serum.

[2] = tested on: IL-2 production in Jurkat human T lymphocyte cells; experiment: IL-2 production assay for activity of compounds incubated with human serum; conditions: for IC50: IL-2 production in Jurkat cells after incubation with pooled human serum for 48 hours at 37° C.; for Conversion (%): percent of the IC50 value produced by triptolide (PG490) in the same experiment, human serum 48 hours; for bioactivity in IL-2 inhibition assays (in words): FIGS. 4-5; for IL-2 pg/mL at given concentration (nM): Table 8, Jurkat cells
Method: Several compounds of formula I were analyzed for their capacity to inhibit IL-2 production in Jurkat human T lymphocyte cells, after incubation with pooled human serum for 48 hours at 37° C. (see Example 20). An ester prodrug, triptolide-14-succinate, designated PG490-88, was included for comparison.
The IC50 values (column 1) are calculated directly from the data in each experiment. The % conversion values (column 2) are calculated as the percent of the IC50 value produced by triptolide, designated PG490, incubated in the same plasma (i.e. in the same experiment).
A. IL-2 production assay for activity of compounds incubated with human serum. Test samples were diluted to 1 mM in complete tissue culture medium. […] Cells from an exponentially expanding culture of the Jurkat human T lymphocyte cell line (#TIB-152 obtained from American Type Culture Collection, Manassas, Va.) were harvested, washed once by centrifugation and dilution in complete tissue culture medium, and diluted to a concentration of 2×10^6 cells/ml. A volume of 50 μl of Jurkat cells (1×10^5 cells) was added to wells containing 100 μl of the diluted compounds, 50 μl of PMA (10 ng/ml) was added to each well, and the plates were incubated at 37° C. in a 5% CO2 incubator. After 24 hours, the plates were centrifuged to pellet the cells, 150 μl of supernatant was removed from each well, and the samples were stored at −20° C. The stored supernatants were analyzed for human IL-2 concentration using the Luminex 100 (Luminex Corporation, Austin, Tex.), Luminex microspheres coupled with anti-IL-2 capture antibody, and fluorochrome-coupled anti-IL-2 detection antibody. The data were expressed as ng/ml of IL-2.
as §2, with “B.” for “C.”, “IL-2 concentration.” for “percent apoptotic cells.”, “inducing a” for “inducing”, “decrease in the IL-2 concentration (IC50)” for “apoptosis (ED50)”

in vitro = conditions: for half-life: human, plasma
Method: as §1
Prodrug conversions to triptolide as determined independently by HPLC are given in […].

[3] = 0.5 h, read-out: ED50 (nM) in apoptosis assay after incubation with serum, incubation time in human serum 0.5 hours, 37° C.
[4] = incubation time in human serum 0.5 hours
[5] = Table 4, serum, 48 hr, 10000 nM

Compound | EC50 [1, 3] [nM] | Conversion, as relative ED50 compared to triptolide (%) [1, 4] [%] | Conversion (%) [2] [%] | half-life (in vitro) [min] | % apoptotic cells at given concentration (nM) ([1]; Table 4, medium, 10000 nM) [%] | % apoptotic cells at given concentration (nM) ([1]; Table 4, serum, 0 hr, 10000 nM) [%] | % apoptotic cells at given concentration (nM) ([1]; Table 4, serum, 48 hr, 0.03 nM) [%] | % apoptotic cells at given concentration (nM) ([1]; Table 4, serum, 48 hr, 0.1 nM) [%] | % apoptotic cells at given concentration (nM) ([1]; Table 4, serum, 48 hr, 0.3 nM) [%] | % apoptotic cells at given concentration (nM) ([1]; Table 4, serum, 48 hr, 1 nM) [%] | % apoptotic cells at given concentration (nM) ([1]; Table 4, serum, 48 hr, 3 nM) [%] | % apoptotic cells at given concentration (nM) ([1]; Table 4, serum, 48 hr, 10 nM) [%] | % apoptotic cells at given concentration (nM) ([1]; Table 4, serum, 48 hr, 30 nM) [%] | % apoptotic cells at given concentration (nM) ([1]; Table 4, serum, 48 hr, 100 nM) [%] | % apoptotic cells at given concentration (nM) ([1]; Table 4, serum, 48 hr, 300 nM) [%] | % apoptotic cells at given concentration (nM) ([1]; Table 4, serum, 48 hr, 1000 nM) [%] | % apoptotic cells at given concentration (nM) ([1]; Table 4, serum, 48 hr, 3000 nM) [%] | % apoptotic cells at given concentration (nM) [1, 5] [%] | bioactivity in IL-2 inhibition assays (in words) [2] | IL-2 pg/mL at given concentration (nM) ([2]; 0.0001 nM) [pg/mL] | further results
CCOCCOC(=O)O[C@@H]1[C@@]2(C(C)C)O[C@H]2[C@@H]2O[C@]23[C@]12O[C@H]2C[C@H]1C2=C(CC[C@@]13C)C(=O)OC2 [PG679, Triptolide 14-Ethoxyethyl Carbonate] | 39 | 128 | 11 | 11 | – | – | – | – | – | – | – | – | – | – | – | – | – | – | – | – | IC50 ([2]; Homo sapiens, Jurkat, 48 h): 12 nM
CCOC(=O)O[C@@H]1[C@@]2(C(C)C)O[C@H]2[C@@H]2O[C@]23[C@]12O[C@H]2C[C@H]1C2=C(CC[C@@]13C)C(=O)OC2 [PG674, Triptolide 14-Ethyl Carbonate] | 27 | 188 | – | 12 | – | – | – | – | – | – | – | – | – | – | – | – | – | – | – | – | EC50 ([1]; 1 h, read-out: ED50 (nM) in apoptosis assay after incubation with serum, incubation time in human serum 1 hour, 37° C.): 55 nM; EC50 ([1]; 24 h, read-out: ED50 (nM) in apoptosis assay after incubation with serum, incubation time in human serum 24 hours, 37° C.): 60 nM; EC50 ([1]; 48 h, read-out: ED50 (nM) in apoptosis assay after incubation with serum, incubation time in human serum 48 hours, 37° C.): 65 nM; Conversion, as relative ED50 compared to triptolide (%) ([1]; incubation time in human serum 1 hour): 98%; Conversion, as relative ED50 compared to triptolide (%) ([1]; incubation time in human serum 24 hours): 97%; Conversion, as relative ED50 compared to triptolide (%) ([1]; incubation time in human serum 48 hours): 100%
CC(C)[C@]12O[C@H]1[C@@H]1O[C@]13[C@]1(O[C@H]1C[C@H]1C4=C(CC[C@@]13C)C(=O)OC4)[C@@H]2OC(=O)OCC(=O)[O-].[Na+] [PG687Na, Sodium Salt of Triptolide 14-Hydroxycarbonylmethyl Carbonate] | – | – | 1 | – | – | – | – | – | – | – | – | – | – | – | – | – | – | – | – | – | IC50 [2]: 92 nM; max. conversion at 48 hr in human plasma by HPLC (in vitro; incomplete conversion to triptolide, 48 hr incubation): 10%
CC(C)[C@]12O[C@H]1[C@@H]1O[C@]13[C@]1(O[C@H]1C[C@H]1C4=C(CC[C@@]13C)C(=O)OC4)[C@@H]2OC(=O)CCC(N)C(=O)O (stereo partly drawn) [PG661, 14-isoglutamyl ester, reference compound] | – | – | – | – | 7.3 | 5.2 | 38.8 | 38.2 | 39.0 | 39.2 | 39.1 | 39.2 | 40.3 | 38.6 | 36.3 | 28.7 | 28.2 | 5.2 | little or no activity | 82.0 | % apoptotic cells at given concentration (nM) ([1]; Table 3, human serum, 0 hr, 10000 nM): 7.9%; % apoptotic cells at given concentration (nM) ([1]; Table 3, human serum, 48 hr, 1 nM): 11.3%; % apoptotic cells at given concentration (nM) ([1]; Table 3, human serum, 48 hr, 3 nM): 10.4%; % apoptotic cells at given concentration (nM) ([1]; Table 3, human serum, 48 hr, 10 nM): 10.3%; % apoptotic cells at given concentration (nM) ([1]; Table 3, human serum, 48 hr, 30 nM): 10.5%; % apoptotic cells at given concentration (nM) ([1]; Table 3, human serum, 48 hr, 100 nM): 10.3%; % apoptotic cells at given concentration (nM) ([1]; Table 3, human serum, 48 hr, 300 nM): 10.5%; % apoptotic cells at given concentration (nM) ([1]; Table 3, human serum, 48 hr, 1000 nM): 10.2%; % apoptotic cells at given concentration (nM) ([1]; Table 3, human serum, 48 hr, 3000 nM): 9.7%; % apoptotic cells at given concentration (nM) ([1]; Table 3, human serum, 48 hr, 10000 nM): 9.4%; % apoptotic cells at given concentration (nM) ([1]; Table 3, medium only, 10000 nM): 13.6%; apoptotic activity (in words) ([1]; after 48 hr. incubation in human serum): essentially no activity; IL-2 pg/mL at given concentration (nM) ([2]; 0.001 nM): 102.1 pg/mL; IL-2 pg/mL at given concentration (nM) ([2]; 0.01 nM): 123.6 pg/mL; IL-2 pg/mL at given concentration (nM) ([2]; 0.1 nM): 120.7 pg/mL; IL-2 pg/mL at given concentration (nM) ([2]; 1 nM): 98.2 pg/mL; IL-2 pg/mL at given concentration (nM) ([2]; 10 nM): 110.3 pg/mL; IL-2 pg/mL at given concentration (nM) ([2]; 100 nM): 103.6 pg/mL; IL-2 pg/mL at given concentration (nM) ([2]; 1000 nM): 74.4 pg/mL; IL-2 pg/mL at given concentration (nM) ([2]; 10000 nM): 68.7 pg/mL
CC(C)[C@]12O[C@H]1[C@@H]1O[C@]13[C@]1(O[C@H]1C[C@H]1C4=C(CC[C@@]13C)C(=O)OC4)[C@@H]2OC(=O)Nc1ccccc1 [PG671, Triptolide 14-Phenyl Carbamate] | – | – | – | – | 13.7 | 10.2 | 42.5 | 43.3 | 43.9 | 44.2 | 43.2 | 42.4 | 44.7 | 43.5 | 43.1 | 43.0 | 43.3 | 15.4 | some level of bioactivity | 96.4 | conversion in human serum (in words) [1]: less readily converted; IL-2 pg/mL at given concentration (nM) ([2]; 0.001 nM): 102.7 pg/mL; IL-2 pg/mL at given concentration (nM) ([2]; 0.01 nM): 99.7 pg/mL; IL-2 pg/mL at given concentration (nM) ([2]; 0.1 nM): 114.7 pg/mL; IL-2 pg/mL at given concentration (nM) ([2]; 1 nM): 106.1 pg/mL; IL-2 pg/mL at given concentration (nM) ([2]; 10 nM): 90.7 pg/mL; IL-2 pg/mL at given concentration (nM) ([2]; 100 nM): 77.9 pg/mL; IL-2 pg/mL at given concentration (nM) ([2]; 1000 nM): 48.7 pg/mL; IL-2 pg/mL at given concentration (nM) ([2]; 10000 nM): 8.8 pg/mL
